Values quoted from earlier work as cited in US20050272687A1, “Stable S-adenosyl-l-methionine” (priority 2004, published 2005).
Values belong to the molecule of their own block, whether it stands above or below them.

Columns and labels:
[1] = test system: S-adenosyl-1-methionine-dependent methyltransferases
[2] = test system: nucleolar 2-O-methyltransferase
[3] = in vivo
[4] = same conditions as in example 10 (room temperature, light, closed bottle), after 4 months
[5] = during the course of the clinical trial
[6] = test system: alcoholic liver cirrhosis; conditions: oral; as compared with a placebo treated group

tightness of enzyme binding relative to (R,S)-S-adenosyl-1-methionine [2]: 10 fold
SMILES: C[S@@+](CC[C@H](N)C(=O)O)C[C@H]1O[C@@H](n2cnc3c(N)ncnc32)[C@H](O)[C@@H]1O [(S,S)-S-adenosyl-1-methionine]

deterioration [4]: 43.9%
SMILES: C[S+](CC[C@H](N)C(=O)O)C[C@H]1O[C@@H](n2cnc3c(N)ncnc32)[C@H](O)[C@@H]1O.C[S+](CC[C@H](N)C(=O)O)C[C@H]1O[C@@H](n2cnc3c(N)ncnc32)[C@H](O)[C@@H]1O.O=S(=O)([O-])CCCCS(=O)(=O)[O-] (stereo partly drawn) [S-adenosyl-1-methionine 1,4 butanedisulfonate]
oral absorption compared with other salts [3]: better absorbed orally than any other salts

deterioration [4]: 92.9%
SMILES: C[S+](CC[C@H](N)C(=O)O)C[C@H]1O[C@@H](n2cnc3c(N)ncnc32)[C@H](O)[C@@H]1O.Cc1ccc(S(=O)(=O)[O-])cc1 (stereo partly drawn) [S-adenosyl-1-methionine tosylate]

The remaining lines, values behind:

SMILES: C[S@@+](CC[C@@H](N)C(=O)O)C[C@H]1O[C@@H](n2cnc3c(N)ncnc32)[C@H](O)[C@@H]1O (racemic) [(+)-SAM, (R,S)-S-adenosyl-1-methionine]
inhibition of enzyme-catalyzed transmethylation reactions [1]: potent inhibitor

SMILES: C[S+](CC[C@H](N)C(=O)[O-])C[C@H]1O[C@@H](n2cnc3c(N)ncnc32)[C@H](O)[C@@H]1O (stereo partly drawn) [S-adenosyl-1-methionine]
(R,S) S-adenosyl-1-methionine share after epimerization [5]: 55%
(S,S) S-adenosyl-1-methionine share after epimerization [5]: 45%
overall mortality and/or progression to liver transplant [6]: 29% vs 12%

SMILES: CC(C)NCC(O)COc1cccc2ccccc12 (stereo not drawn) [propranolol]
potency of L-form relative to D-enantiomer (beta-adrenergic): 100 times
